Measurements: US20260191873A1, “FUSED AMINO PYRIMIDINE COMPOUNDS FOR TREATMENT OF 22q11.2 DELETION/DUPLICATION SYNDROMES” (Ovid Therapeutics Inc., priority 2024, published 2026)

Legend:
KA induced SE [1] = test: Kainic acid (KA) induced SE, EEG, pretreatment; assay type: in vivo, mice; conditions: Compound A pretreated, 2 h after KA, pre DZ; vehicle 4.2±2.4×10^−6
Excerpt: This model was chosen due to the similarities with patients undergoing SE, as KA-induced seizures become refractory to benzodiazepines (BDZs) within minutes (Betjemann and Lowenstein, Lancet Neurol 14, 615-624 (2015); Crawshaw and Cock, (2020a) [Seizure: Eur. J. Epilep. 75 (2020) 145-152] Seizure 80, 282; Lee et al., 2022, supra; Reddy and Kuruba, Int J Mol Sci 14, 18284-18318 (2013)).
EEG recordings and analysis. WT C57Bl/6J adult male mice (12 weeks) were anesthetized with isofluorane and implanted with EEG/EMG electrodes and allowed to recover for 7 days prior to experimentation. […] 2 h following KA administration mice were injected with a saturating concentration of diazepam (DZ) 10 mg/kg (IP) and recordings were extended for a further 60 min. […] LabChart 8 software was used for data analysis. […]
To provide quantitative insights on the effects of KA, raw EEG recordings were subject to Fast-Fourier transformation (8K FFT size, Hann (cosine-bell), 87.50% window overlap) for frequencies between 0-100 Hz 2 h after KA injection (Lee et al., 2022, supra). […]

KA induced SE [2] = test: KA induced SE, EEG, direct injection into the hippocampus; assay type: in vivo, mice; conditions: injected into the hippocampus, DZ 2 h after KA
Description: 30 or 60 min later mice were injected with KA (20 mg/kg) and 2 h later with DZ as detailed above.

[3] = system: panel of 144 protein kinases; test: Protein kinase panel (SelectScreen; Thermofisher); assay type: biochemical; conditions: 144 protein kinases incl. PKC isoforms, OSR1, SPAK, WNK
Description: Aliquots of HEK-293 cells expressing KCC2 were exposed to 30 μM SSA, heated from 37-55° C. The remaining level of soluble native KCC2 at each temperature was measured by immunoblotting and normalized to the level seen at 37° C. which was given a value of 1. […] This panel included protein kinase C isoforms, OSR1, SPAK (STK39) and with-no-lysine kinases (WNK), all of which phosphorylate KCC2 on multiple residues to indirectly modify its activity (Kahle et al., 2013, supra; Smalley et al., 2020, supra).

KCC2 = molecular target: T1, KCC2 (Homo sapiens, UniProt Q9H2X9); test: FLIPR Tl+ flux assay in HEK-293 cells expressing KCC2; assay type: cell-based; conditions: saturating concentration of 3 μM, 1% BCD vehicle
T1 construct: expressed in transfected cells; host or cells: HEK-293 (ATCC CRL-1573)
T1 sequence (Q9H2X9 1-1116 isoform Q9H2X9-2): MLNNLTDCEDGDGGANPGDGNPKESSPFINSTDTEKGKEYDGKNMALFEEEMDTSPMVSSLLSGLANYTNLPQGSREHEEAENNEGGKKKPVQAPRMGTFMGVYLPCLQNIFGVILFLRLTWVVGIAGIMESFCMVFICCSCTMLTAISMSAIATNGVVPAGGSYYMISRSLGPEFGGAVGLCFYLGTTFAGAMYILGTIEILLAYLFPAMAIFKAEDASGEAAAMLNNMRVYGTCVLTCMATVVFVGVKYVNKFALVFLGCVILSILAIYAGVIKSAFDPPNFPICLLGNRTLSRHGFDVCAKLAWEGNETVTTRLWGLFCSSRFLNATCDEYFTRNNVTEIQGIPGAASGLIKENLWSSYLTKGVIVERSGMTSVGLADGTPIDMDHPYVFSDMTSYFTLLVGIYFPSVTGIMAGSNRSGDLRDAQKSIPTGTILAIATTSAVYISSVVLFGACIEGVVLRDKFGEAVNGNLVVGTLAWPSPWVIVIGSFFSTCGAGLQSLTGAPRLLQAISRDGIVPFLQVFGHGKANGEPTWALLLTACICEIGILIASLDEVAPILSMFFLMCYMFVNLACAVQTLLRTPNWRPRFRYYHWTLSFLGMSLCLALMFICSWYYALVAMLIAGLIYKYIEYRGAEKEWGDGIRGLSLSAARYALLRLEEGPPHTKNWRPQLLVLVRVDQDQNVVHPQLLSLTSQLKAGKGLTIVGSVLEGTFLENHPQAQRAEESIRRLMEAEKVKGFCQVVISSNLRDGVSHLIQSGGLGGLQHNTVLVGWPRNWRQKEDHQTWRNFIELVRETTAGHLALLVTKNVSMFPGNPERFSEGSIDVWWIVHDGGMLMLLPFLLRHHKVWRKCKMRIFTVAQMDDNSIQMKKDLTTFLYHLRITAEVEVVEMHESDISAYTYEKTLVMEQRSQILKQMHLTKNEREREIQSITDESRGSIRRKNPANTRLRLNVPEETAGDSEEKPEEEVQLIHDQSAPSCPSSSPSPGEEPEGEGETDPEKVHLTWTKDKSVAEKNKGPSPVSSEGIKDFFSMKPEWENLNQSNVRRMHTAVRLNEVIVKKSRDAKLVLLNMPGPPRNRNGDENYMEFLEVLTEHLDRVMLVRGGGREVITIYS
Description: A multi-tiered high-throughput screening assay was used, leveraging a proprietary library of 1.3 million small molecule compounds from AstraZeneca (Cambridge, UK) to identify chemical entities capable of activating KCC2. A single point concentration of 30 μM was used to identify potassium flux using an established thallium (TI+) influx FLIPR assay as the primary read out in HEK-293 cells overexpressing KCC2 (Cardarelli et al., Nat. Med. 23, 1394-1396 (2017); Conway et al., J Biol Chem 292, 21253-21263 (2017); Lee et al., 2022, supra).
Cell Culture and biotinylation. […]
FLIPR TI Flux assay. HEK-293 cells were washed with HBSS, and then incubated with loading buffer containing TI sensitive fluorescent dye (https://www.moleculardevices.com), 20 μM bumetanide 20 μM ouabain and 2.5 mM probenecid for 1 h at room temperature (RT) under control conditions or with drugs in the dark using a FlexStation 3 microplate reader (Molecular Devices) and imaged […] for 30 min. Stimulus buffer was added containing 5 mM K^+/0.5 mM Tl^+ and cells were imaged every 1.5 over a 190 second time course The initial rate Tl^+ uptake (Relative Fluorescence Units (RFU) per second) was determined following addition of the stimulus buffer as outlined previously (Conway et al., 2017, supra) (Lee et al., 2022, supra). […]

KA induced SE [4] = test: KA induced ongoing SE, EEG, treatment 2 h after KA; assay type: in vivo, mice
Description: EEG recordings and analysis. WT C57Bl/6J adult male mice (12 weeks) were anesthetized with isofluorane and implanted with EEG/EMG electrodes and allowed to recover for 7 days prior to experimentation. […] 2 h following KA administration mice were injected with a saturating concentration of diazepam (DZ) 10 mg/kg (IP) and recordings were extended for a further 60 min. […] LabChart 8 software was used for data analysis. Epileptiform activity was identified by changes in the amplitude of electrographic activity characterized by consistent changes in the power of the Fast Fourier transform (FFT) of the EEG and abnormal activity characterized by periods of rhythmic spiking lasting longer than 30 s (Moore et al., 2017, supra; Silayeva et al., 2015, supra; Sivakumaran et al., J. Neurosci. 35, 8291-8296 (2015)).
To evaluate the potential of KCC2 activators to terminate ongoing SE, the KA model described above was employed. Mice were injected with KA (20 mg/Kg; IP). […] Spectral data were then subjected to FFT and the total EEG power between 1-100 Hz of the 2 h following KA treatment (pre-drug) and 30 min following their injection (post-drug) were compared (FIG. 6B). In mice treated with DZ alone variable effects were observed, from large increases to modest reductions in EEG power, but these effects were not significant (FIG. 6C; pre=1.1±0.2×10^−6, post=4.4±7.4×10^−7 μV^2, p=0.214, n=13-14 mice). […]

C[C@@H]1CN(c2nc3c(c(Nc4ccc(C5CCCCC5)cc4)n2)COC3)CCO1 [Compound A, (R)—N-(4-cyclohexylphenyl)-2-(2-methylmorpholino)-5,7-dihydrofuro[3,4-d]pyrimidin-4-amine]
total EEG power (KA induced SE [1]): 6.9±3.2×10^−7 μV^2
effect of DZ on seizure parameters in pretreated mice (KA induced SE [2]): significantly reduced
activity of kinase panel [3]: did not modify the activity
maximum potentiation (KCC2): 90%
DZ insensitivity (KA induced SE [4]; Compound A 50 mg/kg with DZ 10 mg/kg IP): abolished

CN1C(=O)CN=C(c2ccccc2)c2cc(Cl)ccc21 [DZ, diazepam, reference compound]
mice insensitive to the effects on EEG power (KA induced SE [4]; DZ 10 mg/kg IP 2 h after KA): 62%
